From ChEMBL document CHEMBL1201862, “PubChem BioAssay data set” (2004)
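Following 48 hours of exposure in 96-well plates, responses at five concentrations were used to interpolate endpoints linearly. GI50: concentration for 50% inhibition of growth.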 The source made the active and inactive calls. Rule as the data show it: active = GI50 up to about 1.1 µM and inactive = higher.

Tests used:
Assay in all cases: NCI-60 cell line screen, 48 h
UACC-257 = test system: UACC-257
NCI/ADR-RES = test system: NCI/ADR-RES
UACC-62 = test system: UACC-62
786-0 = test system: 786-0
CAKI-1 = test system: CAKI-1
SF-295 = test system: SF-295
SNB-19 = test system: SNB-19
U-251 = test system: U-251
OVCAR-3 = test system: OVCAR-3
OVCAR-5 = test system: OVCAR-5
HT-29 = test system: HT-29
MOLT-4 = test system: MOLT-4
KM12 = test system: KM12
HCT-15 = test system: HCT-15
A549 = test system: A549
ACHN = test system: ACHN
SNB-75 = test system: SNB-75
TK-10 = test system: TK-10
SK-MEL-5 = test system: SK-MEL-5

Oc1ccc(-c2c3ccccc3c(-c3ccc(OCCBr)cc3)c3ccccc23)cc1
GI50 (UACC-257): 24.2 µM (inactive)
GI50 (NCI/ADR-RES): 19.6 µM (inactive)
GI50 (UACC-62): 19.7 µM (inactive)
GI50 (786-0): 21.9 µM (inactive)
GI50 (CAKI-1): 27.4 µM (inactive)
GI50 (SF-295): 16 µM (inactive)
GI50 (SNB-19): 29.4 µM (inactive)
GI50 (U-251): 32.3 µM (inactive)
GI50 (OVCAR-3): 14.6 µM (inactive)
GI50 (OVCAR-5): 27.1 µM (inactive)
GI50 (HT-29): 19.6 µM (inactive)
GI50 (MOLT-4): > 100 µM (inactive)
GI50 (KM12): 29.4 µM (inactive)
GI50 (HCT-15): 30.7 µM
GI50 (A549): 28.4 µM (inactive)
GI50 (ACHN): 29.1 µM (inactive)
GI50 (SNB-75): 25.1 µM (inactive)
GI50 (TK-10): 34.5 µM (inactive)
GI50 (SK-MEL-5): 19.1 µM (inactive)

C=CC1ON(Cc2ccccc2)CCc2cc(OC)c(OC)cc21 (configuration not stated)
GI50 (UACC-257): 52.6 µM (inactive)
GI50 (NCI/ADR-RES): 45.5 µM (inactive)
GI50 (UACC-62): 56.1 µM (inactive)
GI50 (786-0): > 100 µM (inactive)
GI50 (CAKI-1): 70.5 µM (inactive)
GI50 (SF-295): 31.7 µM (inactive)
GI50 (SNB-19): > 100 µM (inactive)
GI50 (U-251): 66.5 µM (inactive)
GI50 (OVCAR-3): 35.4 µM (inactive)
GI50 (OVCAR-5): > 100 µM (inactive)
GI50 (HT-29): 42.4 µM (inactive)
GI50 (MOLT-4): 34.7 µM (inactive)
GI50 (KM12): 27 µM (inactive)
GI50 (HCT-15): 48.2 µM
GI50 (A549): 44.2 µM (inactive)
GI50 (ACHN): > 100 µM (inactive)
GI50 (SNB-75): 72.4 µM (inactive)
GI50 (TK-10): > 100 µM (inactive)
GI50 (SK-MEL-5): 16.1 µM (inactive)

N[C@@H]1CCN(c2c(F)cc3c(=O)c(C(=O)O)cn4c3c2Oc2cc3c(ccc5ccccc53)cc2-4)C1
GI50 (UACC-257): 0.78 µM (active)
GI50 (NCI/ADR-RES): > 79.3 µM (inactive)
GI50 (UACC-62): 7.6 µM (inactive)
GI50 (786-0): 1.55 µM (inactive)
GI50 (CAKI-1): 6.27 µM (inactive)
GI50 (SF-295): 3.68 µM (inactive)
GI50 (SNB-19): 3.3 µM (inactive)
GI50 (U-251): 0.906 µM (active)
GI50 (OVCAR-3): 5.73 µM (inactive)
GI50 (OVCAR-5): 13.9 µM (inactive)
GI50 (HT-29): 0.585 µM (active)
GI50 (MOLT-4): 0.515 µM (active)
GI50 (KM12): 5.32 µM (inactive)
GI50 (HCT-15): 1.69 µM
GI50 (A549): 3.29 µM (inactive)
GI50 (ACHN): 1.54 µM (inactive)
GI50 (SNB-75): 2.89 µM (inactive)
GI50 (TK-10): 1.45 µM (inactive)
GI50 (SK-MEL-5): 2.92 µM (inactive)
